Values quoted from earlier work, collected in patent US20050263150A1, “Systems and methods for the administration of drugs and medications” (priority 2004, published 2005).
Where two headings read alike, the source gives them in different places.

Assays:
[1] = ketamine combined with benzodiazepines and barbiturates, extends ketamine's half-life
[2] = for duration of action: in vivo

For `CNC1(c2ccccc2Cl)CCCCC1=O` (stereo not drawn) [Ketamine, 2-(2-chlorophenyl)-2-(methylamino)-cyclohexanone], the “prolonging clinical recovery time” value [1] is listed as “about 30%”.
For `C=CCC1(C(C)C#CCC)C(=O)N=C(O)N(C)C1=O` (stereo not drawn) [Methohexital], the duration of action [2] is given as “less than 10 minutes” and the onset of action ([2]; procedural sedation) is given as “less than 1 minute”.
In the case of `[N-]=[N+]=O` [Nitrous oxide], the duration of action [2] is given as 3 to 5 min and the onset of action ([2]; sedative/analgesic) is given as 3 to 5 min.
In the case of `CC(C)c1cccc(C(C)C)c1O` [Propofol], the solubility in water is listed as “almost completely insoluble in water”.
